Numbers after ± are expanded uncertainties.
What was measured:
[1] = refractive index (Na D-line) (dimensionless); details: 298.15 K; 101.33 kPa; Liquid; Standard Abbe refractometry
[2] = Liquid; for mass density: 298.15 K, 101.33 kPa, Vibrating tube method; for Normal boiling temperature: Ebulliometric method (Recirculating still)

## c1ccccc1 [benzene]
[1]
  refractive index: 1.49692 ± 0.00073
[2]
  mass density: 873.6 ± 0.16 kg/m3
  Normal boiling temperature: 80.01 ± 0.2 °C

## C1CCCCC1 [cyclohexane]
[1]
  refractive index: 1.4232 ± 0.00073
[2]
  mass density: 773.7 ± 0.2 kg/m3
  Normal boiling temperature: 80.64 ± 0.2 °C

## CCCO [propan-1-ol]
[1]
  refractive index: 1.38305 ± 0.00075
[2]
  mass density: 799.51 ± 0.31 kg/m3
  Normal boiling temperature: 97.2 ± 0.2 °C
